Consider 3 molecules from publication PMC9814550, “Exo-selective intermolecular Diels–Alder reaction by PyrI4 and AbnU on non-natural substrates” (Communications Chemistry, 2021).

Like-named read-outs stand apart in the source and are kept apart here.

In one test the target is T1, PyrI4 (Streptomyces rugosporus, UniProt K7QVW7, E65A).
T1 construct: full length, N-terminal poly-His tag, pET28a(+), codon-optimised synthetic gene, E. coli
The test can be described thus: LC-SRM of product 3a. The test is classed as biochemical. Particulars: co-substrate 2.

The next test addresses T2, AbnU (Parafrankia colletiae, UniProt A0A1S1R073).
T2 construct: gene CC117_14200; N-terminal poly-His tag, pET28a(+), codon-optimised synthetic gene, E. coli; dimer
Briefly: tryptophan fluorescence quenching (W114). The test is classed as binding.

T2 sequence (A0A1S1R073 entry or part of it): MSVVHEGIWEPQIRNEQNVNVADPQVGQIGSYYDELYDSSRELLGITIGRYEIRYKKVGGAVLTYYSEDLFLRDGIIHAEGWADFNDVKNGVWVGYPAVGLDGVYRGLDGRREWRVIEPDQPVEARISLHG
T1 sequence (K7QVW7 whole entry E65A): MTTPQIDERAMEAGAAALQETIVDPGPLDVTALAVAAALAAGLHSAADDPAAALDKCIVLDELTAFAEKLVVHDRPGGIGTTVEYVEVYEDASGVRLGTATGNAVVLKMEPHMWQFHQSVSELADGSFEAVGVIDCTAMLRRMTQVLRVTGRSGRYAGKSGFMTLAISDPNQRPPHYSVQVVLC

On to `C=C/C=C/NC(=O)OCc1ccc(C(=O)OC)cc1` [1a, diene 1a], for which the “LC-SRM of product 3a” value on PyrI4 is “Stereoselectivity is further compromised with E65A mutant”. Moreover, the dissociation constant (Kd) on AbnU (read-out: KD) turned out to be 729 ± 117 µM.
As for `COC(=O)c1ccc(COC(=O)NC2C=CCCC2C(=O)N(C)C)cc1` (mixture of isomers) [3a], at AbnU (read-out: KD), the Kd amounted to 1010 ± 205 µM.
`C=CC(=O)N(C)C` [compound 2, N,N-dimethylacrylamide]: binding at AbnU was put at a Kd of 6320 ± 280 µM.

The term Kd denotes the concentration at which binding is half-saturated.
